Values after ≈ are worked out from the molar mass of the structure shown.
Settings: for aqueous solubility: pH 6.8

| fraction unbound, human plasma | intrinsic clearance, human liver microsomes [mL/min/kg] | intrinsic clearance, rat liver microsomes [mL/min/kg] | aqueous solubility [µg/mL] | MDR1-MDCK efflux ratio | fraction unbound, rat plasma | SMILES |
| --- | --- | --- | --- | --- | --- | --- |
| 0.0181 | 430 | 3580 | 19.5 (≈ 46.2 µM) | – | – | CC(=O)N1CCN(c2c(Cl)cccc2NC(=O)COc2ccccc2Cl)CC1 |
| – | 18.2 | 364 | – | 0.534 | – | Cc1ncccc1CNc1ccc(CC#N)cc1 |
| – | 71.6 | 1150 | 1.31 (≈ 3.67 µM) | 0.976 | – | O=C(CCCc1nnc(-c2ccccc2)o1)Nc1cccc2ccccc12 |
| – | 18.2 | 644 | 45.9 (≈ 159 µM) | 0.669 | – | COc1ccc(CN(C)C(=O)Nc2ccccc2)cc1F |
| – | – | – | 0.27 (≈ 0.708 µM) | 1.26 | – | COc1ccccc1NC(=O)CSc1nc(C(C)(C)C)nc2ccccc12 |
| – | – | – | 0.4 (≈ 0.865 µM) | 7.52 | – | CC(C)(C)Nc1cc(NCC2CCOCC2)c2ncc(-c3ccc(C(=O)NC4CC4)cc3)n2n1 |
| – | 23.3 | 415 | 26 (≈ 99 µM) | 0.69 | – | Cn1c(=O)n(C2CCCC2)c(=O)c2c(F)cccc21 |
| – | ≤ 4.74 | 38.8 | – | 14.7 | – | CCCc1ncncc1C(=O)NCc1nncn1CCC |
| – | 61.9 | 140 | 18.6 (≈ 66.3 µM) | 0.695 | – | O=C(NC1CCCC1)c1cc(C2CC2)nc2ccccc12 |
| – | 5.25 | 66.1 | 39 (≈ 107 µM) | 8.39 | – | O=C1CN(C(=O)c2cccc(Oc3cccc(C(F)(F)F)c3)c2)CCN1 |
| – | 9.54 | 19.2 | 1.49 (≈ 3.17 µM) | – | – | O=C(Nc1ccccc1-c1cn2c(CN3CCNCC3)csc2n1)c1cnc2ccccc2n1 |
| – | 8.56 | 254 | 23.1 (≈ 66.9 µM) | 4.57 | – | Cc1nc2cc(NC(=O)Cc3c(C)nc4ccccc4c3C)ccc2o1 |
| – | 68.9 | 121 | – | – | – | N#Cc1cc(N2CC(CO)C2)nc2ccc(Cl)cc12 |
| 0.0566 | 191 | 1450 | 10.1 (≈ 23.5 µM) | 24.7 | 0.0797 | C=CC(=O)N1CCC(CNc2ncnc(N)c2-c2ccc(Oc3ccccc3)cc2)CC1 |
| – | 557 | 1060 | 51 (≈ 131 µM) | 10.2 | – | CC(C)c1nccn1-c1cccc([C@@H]2CCCN2C(=O)CCc2ccccc2)n1 |
| – | ≤ 4.74 | ≤ 10.7 | 38.7 (≈ 179 µM) | 1.55 | – | CC(=O)Nc1ccc2nc(C)cc(O)c2c1 |
| – | 12.9 | 27.5 | – | – | – | Clc1cnc(Oc2ccc3cn[nH]c3c2)nc1 |
| – | 26.9 | 142 | – | 0.719 | – | C#CCNC(=O)Cc1coc(-c2ccccc2)n1 |
| – | 53.7 | 892 | 22.5 (≈ 52.1 µM) | – | – | COc1ccc(CCn2c(C)c3c(=O)n(-c4nc5ccccc5s4)[nH]c3cc2=O)cc1 |
| – | ≤ 4.74 | ≤ 10.7 | 21.5 (≈ 102 µM) | 0.594 | – | Clc1ccc(NCc2ccoc2)nn1 |

| fraction unbound, human plasma | intrinsic clearance, human liver microsomes [mL/min/kg] | intrinsic clearance, rat liver microsomes [mL/min/kg] | aqueous solubility [µg/mL] | MDR1-MDCK efflux ratio | fraction unbound, rat plasma | SMILES |
| --- | --- | --- | --- | --- | --- | --- |
| – | ≤ 4.74 | ≤ 10.7 | 57.3 (≈ 228 µM) | – | – | Cn1cc(C(=O)N2CCC(CC(=O)O)CC2)cn1 |
| – | 555 | 910 | – | – | – | CC1(C)[C@@H]2C[C@H]1[C@@]1(O)[C@@H](C2)Oc2c(ccc(O)c2C(=O)NCCc2ccccn2)[C@@H]1O |
| – | – | – | 0.96 (≈ 3.79 µM) | 0.581 | – | c1ccc2c(c1)nnn2Cc1ccc2c(c1)OCO2 |
| – | 50 | 922 | 41.4 (≈ 144 µM) | 0.244 | – | Cc1nc2ccccc2c(N)c1C(=O)/C=C/c1ccccc1 |
| – | 16.6 | 89.2 | 10.8 (≈ 34.7 µM) | 1.58 | – | Cn1ncc2c1CCc1sc(NC(=O)c3cccnc3)nc1-2 |
| – | 103 | 1070 | 91.2 (≈ 208 µM) | 31 | – | CNC(=O)c1sc2ncccc2c1[C@H]1CC[C@H](CNC(=O)COc2ccccc2)CC1 |
| – | – | – | 0.36 (≈ 1.07 µM) | – | – | O=C(Cc1csc(-c2ccc(F)c(F)c2)n1)NCC(F)(F)F |
| – | 225 | 1470 | 1.22 (≈ 2.64 µM) | – | – | CCN(Cc1nc2cc(Cl)ccc2c(=O)[nH]1)C(=O)COc1ccccc1Cc1ccccc1 |
| – | 8.04 | 96.9 | – | 37.8 | – | CC(=O)N1CCN([C@H]2CCN(C(=O)c3cc4cc(Cl)ccc4o3)CC[C@@H]2O)CC1 |
| 0.00903 | 380 | 1510 | 25.1 (≈ 58.9 µM) | 1.93 | 0.0137 | Nc1ncc(-c2cccc(C(F)(F)F)c2)c(C2CCCCN2C(=O)c2ccccc2)n1 (stereo not drawn) |
| – | 13.2 | 169 | 31.7 (≈ 101 µM) | 2.95 | – | Cc1ccnc(-n2nccc2NC(=O)N2CCCN(C)CC2)c1 |
| – | ≤ 4.74 | 249 | – | 45.6 | – | CNCc1cc(N(C)C)nc(C2CCCN2C(=O)C2CCCC2)n1 (stereo not drawn) |
| – | ≤ 4.74 | 268 | – | 30.3 | – | Cc1cc(-c2cn(C)nc2[C@H]2CC[C@H](CNC(=O)C(C)C)CC2)on1 |
| – | – | – | 0.8 (≈ 1.91 µM) | 18.7 | – | O=C(Cn1cccc(C(=O)Nc2cccc(-n3cccn3)c2)c1=O)NC1CCCCC1 |
| – | ≤ 4.74 | 60.7 | 23.2 (≈ 99.6 µM) | 0.792 | – | CCc1nnnn1Cc1noc2c1CCCC2 |
| – | ≤ 4.74 | 349 | 45.8 (≈ 138 µM) | 0.523 | – | CN1CCN(c2ccc(NC(=O)c3ccccc3Cl)nc2)CC1 |
| – | ≤ 4.74 | 31.6 | – | 0.958 | – | O=C(Cc1n[nH]c2ccccc12)N1CCCO1 |
| – | – | – | 34.3 (≈ 171 µM) | – | – | CC(C)(C)OC(=O)N1CCNC(=O)C1 |
| – | – | – | 0.7 (≈ 2.28 µM) | – | – | Cc1cccc(N(C)C(=S)Oc2ccc3ccccc3c2)c1 |
| – | 27.6 | 1270 | 31.6 (≈ 135 µM) | – | – | Cc1ccc(CN(C)Cc2c(C)noc2C)o1 |

| SMILES | fraction unbound, human plasma | intrinsic clearance, human liver microsomes [mL/min/kg] | intrinsic clearance, rat liver microsomes [mL/min/kg] | aqueous solubility [µg/mL] | MDR1-MDCK efflux ratio | fraction unbound, rat plasma |
| --- | --- | --- | --- | --- | --- | --- |
| CCN(CC)C(=O)c1ccc(NC(C)=O)cc1 | – | ≤ 4.74 | 25.6 | 34.6 (≈ 148 µM) | 1.95 | – |

From the Biogen ADME set (Fang et al. 2023)
